In ChEMBL document CHEMBL3272113, “Inhibitors of the luteinizing hormone-releasing hormone based upon modifications in the 2, 3, and 6 positions” (J Med Chem, 1976):
Square brackets hold non-standard residues; d marks the D form. Peptide text beside a SMILES is read from it. pGlu = O=C1CC[C@@H](C(=O)O)N1

What was measured:
Rattus norvegicus [1] = assay: Induction of LH release in immature rat administered as infusion relative to LH-RH; type: functional
Rattus norvegicus [2] = assay: Induction of FSH release in immature rat administered as infusion relative to LH-RH; type: functional
[3] = target: Gonadotropin-releasing hormone receptor (Rattus norvegicus) (UniProt P30969); assay: Antagonist activity at LH-RH receptor in rat pituitary gland assessed as inhibition of LH-RH-induced luteinizing hormone release
Sequence of Gonadotropin-releasing hormone receptor (Rattus norvegicus) (P30969 whole entry, looked up): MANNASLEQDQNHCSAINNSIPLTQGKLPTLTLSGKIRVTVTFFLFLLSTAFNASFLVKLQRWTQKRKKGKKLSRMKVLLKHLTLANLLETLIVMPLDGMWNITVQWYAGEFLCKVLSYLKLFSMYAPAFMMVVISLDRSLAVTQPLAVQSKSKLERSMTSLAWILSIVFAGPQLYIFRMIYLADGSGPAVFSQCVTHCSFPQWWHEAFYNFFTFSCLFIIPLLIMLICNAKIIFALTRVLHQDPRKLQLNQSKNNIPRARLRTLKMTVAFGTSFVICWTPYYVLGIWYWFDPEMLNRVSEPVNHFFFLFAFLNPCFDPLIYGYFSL

[4] = Retardation factor of the compound using EtOAc-pyridine-AcOH-H2O at ratio of 5:5:1:3 as solvent system by thin layer chromatography; type: physicochemical
[5] = Retardation factor of the compound using EtOH-H2O at ratio of 7:3 as solvent system by thin layer chromatography; type: physicochemical
[6] = target: Gonadotropin-releasing hormone receptor (Rattus norvegicus) (UniProt P30969); assay: Antagonist activity at LH-RH receptor in rat pituitary gland assessed as inhibition of LH-RH-induced luteinizing hormone release by measuring change in LH level in medium at 10000 ng/ml
[7] = target: Gonadotropin-releasing hormone receptor (Rattus norvegicus) (UniProt P30969); assay: Antagonist activity at LH-RH receptor in rat pituitary gland assessed as inhibition of LH-RH-induced FSH release by measuring change in FSH level in medium at 10000 ng/ml
[8] = target: Gonadotropin-releasing hormone receptor (Rattus norvegicus) (UniProt P30969); assay: Antagonist activity at LH-RH receptor in rat pituitary gland assessed as inhibition of LH-RH-induced FSH release
[9] = Retardation factor of the compound using 2-propanol-1N AcOH at ratio of 2:1 as solvent system by thin layer chromatography; type: physicochemical
[10] = Retardation factor of the compound using CHCl3-MeOH-concentrated NH4OH as solvent system by thin layer chromatography; type: physicochemical
[11] = target: Gonadotropin-releasing hormone receptor (Rattus norvegicus) (UniProt P30969); assay: Antagonist activity at LH-RH receptor in rat pituitary gland assessed as inhibition of LH-RH-induced luteinizing hormone release by measuring change in LH level in medium at 1000 ng/ml
[12] = target: Gonadotropin-releasing hormone receptor (Rattus norvegicus) (UniProt P30969); assay: Agonist activity at LH-RH receptor in rat pituitary gland assessed as change in luteinizing hormone secretion at 100000 ng/ml
[13] = target: Gonadotropin-releasing hormone receptor (Rattus norvegicus) (UniProt P30969); assay: Antagonist activity at LH-RH receptor in rat pituitary gland assessed as inhibition of LH-RH-induced FSH release by measuring change in FSH level in medium at 1000 ng/ml
[14] = target: Gonadotropin-releasing hormone receptor (Rattus norvegicus) (UniProt P30969); assay: Agonist activity at LH-RH receptor in rat pituitary gland assessed as change in FSH secretion at 100000 ng/ml
[15] = Retardation factor of the compound using 1-BuOH-AcOH-EtOAc-H2O at ratio of 1:1:1:1 as solvent system by thin layer chromatography; type: physicochemical
[16] = system: Gonadotropin-releasing hormone receptor; assay: Agonist activity at LH-RH receptor (unknown origin) relative to LH-RH
[17] = target: Gonadotropin-releasing hormone receptor (Rattus norvegicus) (UniProt P30969); assay: Antagonist activity at LH-RH receptor in rat pituitary gland assessed as inhibition of LH-RH-induced luteinizing hormone release by measuring change in LH level in medium at 100000 ng/ml
[18] = target: Gonadotropin-releasing hormone receptor (Rattus norvegicus) (UniProt P30969); assay: Antagonist activity at LH-RH receptor in rat pituitary gland assessed as inhibition of LH-RH-induced FSH release by measuring change in FSH level in medium at 100000 ng/ml
[19] = Retardation factor of the compound using 1-BuOH-pyridine-AcOH-H2O at ratio of 30:20:6:24 as solvent system by thin layer chromatography; type: physicochemical

MED [3] | Rf [4] | Rf [5] | Activity [6] | Activity [7] | MED [8] | Rf [9] | Rf [10] | Activity [11] | Activity [12] | Activity [13] | Activity [14] | Rf [15] | Activity [16] | Activity [17] | Activity [18] | Rf [19] | Structure (SMILES) | Activity (Rattus norvegicus [1]) | Activity (Rattus norvegicus [2])
 |  |  |  |  |  |  |  |  |  |  |  |  |  |  |  |  | CCNC(=O)[C@@H]1CCCN1C(=O)[C@H](CCCNC(=N)N)NC(=O)[C@H](CC(C)C)NC(=O)[C@@H](C)NC(=O)[C@H](Cc1ccc(O)cc1)NC(=O)[C@H](CO)NC(=O)[C@H](Cc1c[nH]c2ccccc12)NC(=O)[C@H](Cc1cnc[nH]1)NC(=O)[C@@H]1CCC(=O)N1 | 1600% | 1200%
10 µg/mL | 0.71 | 0.62 | 28 ng/mL | 1260 ng/mL | 10 µg/mL | 0.58 | 0.58 | 246 ng/mL | -9 ng/mL | 6170 ng/mL | 158 ng/mL | 0.66 |  |  |  |  | CC(C)C[C@H](NC(=O)[C@@H](NC(=O)[C@@H]1CCC(=O)N1)C(C)C)C(=O)N[C@@H](CO)C(=O)N[C@@H](Cc1ccc(O)cc1)C(=O)N[C@H](C)C(=O)N[C@@H](CC(C)C)C(=O)N[C@@H](CCCNC(=N)N)C(=O)N1CCC[C@H]1C(=O)NCC(N)=O |  | 
 |  |  |  |  |  |  |  |  |  |  |  |  | 300% |  |  |  | CC(C)C[C@H](NC(=O)[C@@H](C)NC(=O)[C@H](Cc1ccc(O)cc1)NC(=O)[C@H](CO)NC(=O)[C@H](Cc1c[nH]c2ccccc12)NC(=O)[C@H](Cc1cnc[nH]1)NC(=O)[C@@H]1CCC(=O)N1)C(=O)N[C@@H](CCCNC(=N)N)C(=O)N1CCC[C@H]1C(=O)NCC(N)=O |  | 
100 µg/mL | 0.71 | 0.62 | 150 ng/mL | 3770 ng/mL | 100 µg/mL | 0.57 | 0.58 |  | -37 ng/mL |  | -185 ng/mL | 0.66 |  | 13 ng/mL | -399 ng/mL |  | CC(C)C[C@H](NC(=O)[C@@H]1CCC(=O)N1)C(=O)N[C@H](C(=O)N[C@@H](CO)C(=O)N[C@@H](Cc1ccc(O)cc1)C(=O)N[C@H](C)C(=O)N[C@@H](CC(C)C)C(=O)N[C@@H](CCCNC(=N)N)C(=O)N1CCC[C@H]1C(=O)NCC(N)=O)C(C)C |  | 
30 µg/mL |  |  |  |  | 30 µg/mL |  |  |  |  |  |  |  |  |  |  |  | CC(C)C[C@H](NC(=O)CNC(=O)[C@H](Cc1ccc(O)cc1)NC(=O)[C@H](CO)NC(=O)[C@H](Cc1c[nH]c2ccccc12)NC(=O)[C@@H]1CCC(=O)N1)C(=O)N[C@@H](CCCNC(=N)N)C(=O)N1CCC[C@H]1C(=O)NCC(N)=O ([pGlu]WSYGLRPG-NH2) |  | 
100 µg/mL |  |  |  |  | 100 µg/mL |  |  |  |  |  |  |  |  |  |  |  | CC(C)C[C@H](NC(=O)CNC(=O)[C@H](Cc1ccc(O)cc1)NC(=O)[C@H](CO)NC(=O)[C@H](CC(C)C)NC(=O)[C@H](CC(C)C)NC(=O)[C@@H]1CCC(=O)N1)C(=O)N[C@@H](CCCNC(=N)N)C(=O)N1CCC[C@H]1C(=O)NCC(N)=O ([pGlu]LLSYGLRPG-NH2) |  | 
100 µg/mL | 0.7 | 0.62 | 313 ng/mL | 4810 ng/mL | 100 µg/mL | 0.54 | 0.53 |  | 17 ng/mL |  | 850 ng/mL | 0.64 |  | 35 ng/mL | 770 ng/mL |  | CC(C)C[C@H](NC(=O)[C@@H](C)NC(=O)[C@H](Cc1ccc(O)cc1)NC(=O)[C@H](CO)NC(=O)[C@@H](NC(=O)[C@@H](NC(=O)[C@@H]1CCC(=O)N1)C(C)C)C(C)C)C(=O)N[C@@H](CCCNC(=N)N)C(=O)N1CCC[C@H]1C(=O)NCC(N)=O |  | 
10 µg/mL | 0.8 | 0.63 | 3 ng/mL | 2700 ng/mL | 10 µg/mL | 0.67 |  | 460 ng/mL | 26 ng/mL | 9280 ng/mL | 1690 ng/mL | 0.69 |  |  |  | 0.59 | CC(C)C[C@H](NC(=O)[C@@H]1CCC(=O)N1)C(=O)N[C@@H](CC(C)C)C(=O)N[C@@H](CO)C(=O)N[C@@H](Cc1ccc(O)cc1)C(=O)N[C@H](C)C(=O)N[C@@H](CC(C)C)C(=O)N[C@@H](CCCNC(=N)N)C(=O)N1CCC[C@H]1C(=O)NCC(N)=O |  | 
